Laboratory results from US10246456B2, “IRAK4 inhibiting agents” (BIOGEN MA INC., priority 2014, dated 2019).
pEC50, pIC50: −log10 of the molar value.

Biological target: IRAK4 (Homo sapiens (Human), UniProt Q9NWZ3)
Assay: IRAK-4 AlphaScreen biochemical kinase assay
Settings: 1 nM IRAK4, 1 mM ATP, 3.5 h at RT
Outline: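 AlphaScreen read-out: streptavidin beads bind the biotinylated peptide and protein A beads bind the anti-phosphothreonine antibody, so energy transfer reports phosphorylation of the peptide. The kinase is human IRAK-4.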

IRAK4, sequence (Q9NWZ3 whole entry, species assumed): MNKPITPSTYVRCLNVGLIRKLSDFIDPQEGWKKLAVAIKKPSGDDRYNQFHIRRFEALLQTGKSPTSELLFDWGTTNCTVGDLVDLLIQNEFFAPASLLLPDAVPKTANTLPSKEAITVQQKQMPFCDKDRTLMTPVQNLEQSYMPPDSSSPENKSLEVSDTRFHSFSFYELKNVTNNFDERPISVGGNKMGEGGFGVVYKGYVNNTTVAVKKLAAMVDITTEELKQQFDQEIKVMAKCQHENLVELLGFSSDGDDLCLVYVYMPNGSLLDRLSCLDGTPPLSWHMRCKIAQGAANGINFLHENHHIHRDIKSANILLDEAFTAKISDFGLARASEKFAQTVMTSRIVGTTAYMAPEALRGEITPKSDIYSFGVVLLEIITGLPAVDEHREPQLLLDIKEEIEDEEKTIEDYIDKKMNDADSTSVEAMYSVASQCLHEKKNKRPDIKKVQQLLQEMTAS

Row | pIC50 | Structure (SMILES)
1 | 6.00 to 7.00 | CC(O)c1cccc(-n2ncc3ccc(-c4cccc([C@H](C)N)n4)cc32)n1 (single isomer, unassigned) [Example 415]
2 | > 7.00 | CCC[C@H](N)c1cccc(-c2cc([C@@H]3CCCN3)c3cnn(-c4cccc(CO)n4)c3c2)n1 [Example 573, (6-(6-(6-((S)-1-aminobutyl)pyridin-2-yl)-4-((S)-pyrrolidin-2-yl)-1H-indazol-1-yl)pyridin-2-yl)methanol]
3 | > 7.00 | CCC[C@H](N)c1ccnc(-c2cc(OC)c3cnn(-c4cccc(CO)n4)c3c2)n1 [Example 574, (S)-(6-(6-(4-(1-aminobutyl)pyrimidin-2-yl)-4-methoxy-1H-indazol-1-yl)pyridin-2-yl)methanol]
4 | > 7.00 | COCCC[C@H](N)c1cccc(-c2cc(-c3ccn(C)n3)c3cnn(-c4cccc(CO)n4)c3c2)n1 [Example 575, (S)-(6-(6-(6-(1-amino-4-methoxybutyl)pyridin-2-yl)-4-(1-methyl-1H-pyrazol-3-yl)-1H-indazol-1-yl)pyridin-2-yl)methanol]
5 | > 7.00 | CCC[C@@H](N)c1ccnc(-c2cc(OC)c3cnn(-c4cccc(CO)n4)c3c2)n1 [Example 576, (R)-(6-(6-(4-(1-aminobutyl)pyrimidin-2-yl)-4-methoxy-1H-indazol-1-yl)pyridin-2-yl)methanol]
6 | > 7.00 | Cc1cnc(-c2cc(-c3cccc([C@H](C)N)n3)cc3c2cnn3-c2cccc(CO)n2)o1 [Example 577, (S)-(6-(6-(6-(1-aminoethyl)pyridin-2-yl)-4-(5-methyloxazol-2-yl)-1H-indazol-1-yl)pyridin-2-yl)methanol]
7 | > 7.00 | CCC[C@H](N)c1cccc(-c2cc(-n3ccnn3)c3cnn(-c4cccc(CO)n4)c3c2)n1 [Example 578, (S)-(6-(6-(6-(1-aminobutyl)pyridin-2-yl)-4-(1H-1,2,3-triazol-1-yl)-1H-indazol-1-yl)pyridin-2-yl)methanol]
8 | > 7.00 | CCC[C@H](N)c1cccc(-c2cc(COC(F)(F)F)c3cnn(-c4cccc(CO)n4)c3c2)n1 [Example 579, (S)-(6-(6-(6-(1-aminobutyl)pyridin-2-yl)-4-((trifluoromethoxy)methyl)-1H-indazol-1-yl)pyridin-2-yl)methanol]
9 | > 7.00 | CCCC[C@H](N)c1ccnc(-c2ccc3cnn(-c4cccc(CO)n4)c3c2)n1 [Example 580, (S)-(6-(6-(4-(1-aminopentyl)pyrimidin-2-yl)-1H-indazol-1-yl)pyridin-2-yl)methanol]
10 | 6.00 to 7.00 | N#CC[C@@H](N)c1cccc(-c2ccc3cnn(-c4cccc(CO)n4)c3c2)n1 [Example 581, (R)-3-amino-3-(6-(1-(6-(hydroxymethyl)pyridin-2-yl)-1H-indazol-6-yl)pyridin-2-yl)propanenitrile]
11 | > 7.00 | CCC[C@H](N)c1cccc(-c2cc(-c3ncc(C)o3)c3cnn(-c4cccc(CO)n4)c3c2)n1 [Example 582, (S)-(6-(6-(6-(1-aminobutyl)pyridin-2-yl)-4-(5-methyloxazol-2-yl)-1H-indazol-1-yl)pyridin-2-yl)methanol]
12 | > 7.00 | CCC[C@H](N)c1ccnc(-c2cc(OCC)c3cnn(-c4cccc(CO)n4)c3c2)n1 [Example 583, (S)-(6-(6-(4-(1-aminobutyl)pyrimidin-2-yl)-4-ethoxy-1H-indazol-1-yl)pyridin-2-yl)methanol]
13 | > 7.00 | CCC[C@@H](N)c1ccnc(-c2cc(OCC)c3cnn(-c4cccc(CO)n4)c3c2)n1 [Example 584, (R)-(6-(6-(4-(1-aminobutyl)pyrimidin-2-yl)-4-ethoxy-1H-indazol-1-yl)pyridin-2-yl)methanol]
14 | 6.00 to 7.00 | CCC[C@H](N)c1cccc(-c2cc(C(CO)CCl)c3cnn(-c4cccc(CO)n4)c3c2)n1 (stereo partly drawn) [Example 585, 2-(6-(6-((S)-1-aminobutyl)pyridin-2-yl)-1-(6-(hydroxymethyl)pyridin-2-yl)-1H-indazol-4-yl)-3-chloropropan-1-ol]
15 | > 7.00 | COCCOc1cc(-c2cccc([C@H](C)N)n2)cc2c1cnn2-c1cccc(CO)n1 [Example 586, (S)-(6-(6-(6-(1-aminoethyl)pyridin-2-yl)-4-(2-methoxyethoxy)-1H-indazol-1-yl)pyridin-2-yl)methanol]
16 | > 7.00 | CC[C@H](N)c1cccc(-c2cc(OCCOC)c3cnn(-c4cccc(CO)n4)c3c2)n1 [Example 587, (S)-(6-(6-(6-(1-aminopropyl)pyridin-2-yl)-4-(2-methoxyethoxy)-1H-indazol-1-yl)pyridin-2-yl)methanol]
17 | > 7.00 | COCCOc1cc(-c2cccc([C@@H](N)C3CC3)n2)cc2c1cnn2-c1cccc(CO)n1 [Example 588, (S)-(6-(6-(6-(amino(cyclopropyl)methyl)pyridin-2-yl)-4-(2-methoxyethoxy)-1H-indazol-1-yl)pyridin-2-yl)methanol]
18 | > 7.00 | CCC[C@H](N)c1cccc(-c2ccc3cnn(-c4cncc(C)n4)c3c2)n1 [Example 590, (S)-1-(6-(1-(6-methylpyrazin-2-yl)-1H-indazol-6-yl)pyridin-2-yl)butan-1-amine]
19 | > 7.00 | N#CC[C@H](N)c1cccc(-c2ccc3cnn(-c4cccc(CO)n4)c3c2)n1 [Example 591, (S)-3-amino-3-(6-(1-(6-(hydroxymethyl)pyridin-2-yl)-1H-indazol-6-yl)pyridin-2-yl)propanenitrile]
20 | > 7.00 | N#CCC[C@H](N)c1cccc(-c2ccc3cnn(-c4cccc(CO)n4)c3c2)n1 [Example 592, (S)-4-amino-4-(6-(1-(6-(hydroxymethyl)pyridin-2-yl)-1H-indazol-6-yl)pyridin-2-yl)butanenitrile]
21 | > 7.00 | CCC[C@H](N)c1ccnc(-c2cc(OCCOC)c3cnn(-c4cccc(CO)n4)c3c2)n1 [Example 595, (S)-(6-(6-(4-(1-aminobutyl)pyrimidin-2-yl)-4-(2-methoxyethoxy)-1H-indazol-1-yl)pyridin-2-yl)methanol]
22 | > 7.00 | CCC[C@@H](N)c1ccnc(-c2cc(OCCOC)c3cnn(-c4cccc(CO)n4)c3c2)n1 [Example 596, (R)-(6-(6-(4-(1-aminobutyl)pyrimidin-2-yl)-4-(2-methoxyethoxy)-1H-indazol-1-yl)pyridin-2-yl)methanol]
23 | > 7.00 | CCC[C@H](N)c1cccc(-c2cc(C3CCOC3)c3cnn(-c4cccc(CO)n4)c3c2)n1 (stereo partly drawn) [Example 597, (6-(6-(6-((S)-1-aminobutyl)pyridin-2-yl)-4-(tetrahydrofuran-3-yl)-1H-indazol-1-yl)pyridin-2-yl)methanol]
24 | > 7.00 | CCC[C@H](N)c1cccc(-c2cc(OCC3CC(F)(F)C3)c3cnn(-c4cccc(CO)n4)c3c2)n1 [Example 598, (S)-(6-(6-(6-(1-aminobutyl)pyridin-2-yl)-4-((3,3-difluorocyclobutyl)methoxy)-1H-indazol-1-yl)pyridin-2-yl)methanol]

Row | Structure (SMILES) | pIC50
25 | N[C@@H](CF)c1cccc(-c2ccc3cnn(-c4cccc(CO)n4)c3c2)n1 [Example 589, (R)-(6-(6-(6-(1-amino-2-fluoroethyl)pyridin-2-yl)-1H-indazol-1-yl)pyridin-2-yl)methanol] | > 7.00
26 | COCCOc1cc(-c2cccc([C@@H](N)CF)n2)cc2c1cnn2-c1cccc(CO)n1 [Example 594, (R)-(6-(6-(6-(1-amino-2-fluoroethyl)pyridin-2-yl)-4-(2-methoxyethoxy)-1H-indazol-1-yl)pyridin-2-yl)methanol] | > 7.00

Tested on: IL-6 in A549 cells
Assay: Cell-based IL-6 ELISA assay in IL-1beta stimulated A549 cells
Settings: 2 ng/ml human IL-1beta overnight
Protocol: The cell-based assays is based on IL-6 ELISA quantification. Briefly, A549 cells are cultured in DMEM with 10% FBS medium. When cells reach 80% confluence they are trypsin treated and seeded 180 ul/well in 96-well plate at 2.5×10^4 cells/well. Then, 20 ul of compound serial dilutions (starting at 10 uM, 10 points) are added to the cell plate; incubate for 30 min at 37 C and stimulated with 2 ng/ml human IL-1beta 37 C, 5% CO2 overnight. The next day 100 ul of cell supernatant per well are analyzed on a Human IL-6 Quantikine ELISA kit from R&D Systems.

Row | pEC50 | Structure (SMILES)
27 | ≥ 6.00 | CC(O)c1cccc(-n2ncc3ccc(-c4cccc([C@H](C)N)n4)cc32)n1 (single isomer, unassigned) [Example 415]
28 | ≥ 6.00 | CCC[C@H](N)c1cccc(-c2cc(N3CCCCC3)c3cnn(-c4cccc(CO)n4)c3c2)n1 [Example 324, (S)-(6-(6-(6-(1-aminobutyl)pyridin-2-yl)-4-(piperidin-1-yl)-1H-indazol-1-yl)pyridin-2-yl)methanol]
29 | ≥ 6.00 | CCC[C@H](N)c1cccc(-c2cc(N3CCOCC3)c3cnn(-c4cccc(CO)n4)c3c2)n1 [Example 339, (S)-(6-(6-(6-(1-aminobutyl)pyridin-2-yl)-4-morpholino-1H-indazol-1-yl)pyridin-2-yl)methanol]
30 | ≥ 6.00 | CCC[C@H](N)c1cccc(-c2cc(N3CCC3)c3cnn(-c4cccc(CO)n4)c3c2)n1 [Example 345, (S)-(6-(6-(6-(1-aminobutyl)pyridin-2-yl)-4-(azetidin-1-yl)-1H-indazol-1-yl)pyridin-2-yl)methanol]
31 | ≥ 6.00 | CCc1cccc(-c2cc(-c3nnc(C)o3)c3cnn(-c4cccc(CO)n4)c3c2)n1 [Example 358, (6-(6-(6-ethylpyridin-2-yl)-4-(5-methyl-1,3,4-oxadiazol-2-yl)-1H-indazol-1-yl)pyridin-2-yl)methanol]
32 | ≥ 6.00 | CCC[C@H](N)c1cccc(-c2cc(C3=CCN(C)CC3)c3cnn(-c4cccc(CO)n4)c3c2)n1 [Example 423, (S)-(6-(6-(6-(1-aminobutyl)pyridin-2-yl)-4-(1-methyl-1,2,3,6-tetrahydropyridin-4-yl)-1H-indazol-1-yl)pyridin-2-yl)methanol]
33 | ≥ 6.00 | C[C@H](N)c1cccc(-c2cc(F)c3cnn(-c4cccc(CO)n4)c3c2)n1 [Example 475, (6-{6-[6-((S)-1-Amino-ethyl)-pyridin-2-yl]-4-fluoro-indazol-1-yl}-pyridin-2-yl)-methanol]
34 | ≥ 6.00 | CCC(O)C(N)c1cccc(-c2ccc3cnn(-c4cccc(CO)n4)c3c2)n1 (centres unmarked) [Example 516, 1-amino-1-(6-(1-(6-(hydroxymethyl)pyridin-2-yl)-1H-indazol-6-yl)pyridin-2-yl)butan-2-ol]
35 | ≥ 6.00 | CC(O)CC(N)c1cccc(-c2ccc3cnn(-c4cccc(CO)n4)c3c2)n1 (centres unmarked) [Example 525, 4-amino-4-(6-(1-(6-(hydroxymethyl)pyridin-2-yl)-1H-indazol-6-yl)pyridin-2-yl)butan-2-ol]
